Assay: xn = mol fraction of the nth substance listed
Details: 100 kPa, Liquid; for electrical conductivity: Alternating current cell with electrodes; for mass density: Vibrating tube method; for viscosity: Capillary tube (Ostwald / Ubbelohde) method

CCCC[N+]1(C)CCCC1.N#CN=C=[N-] [1-butyl-1-methylpyrrolidinium dicyanamide] + O=C1CCCO1
Details	electrical conductivity [S/m]
313.15 K, Frequency=0.00694444 MHz, x1 = 0.4985	2.88
313.15 K, Frequency=0.00694444 MHz, x1 = 0.6954	2.43
313.15 K, Frequency=0.00694444 MHz, x1 = 0.9013	2.09
313.15 K, Frequency=0.00694444 MHz, x1 = 1	2
313.15 K, Frequency=0.0075 MHz, x1 = 0.0463	1.79
313.15 K, Frequency=0.0075 MHz, x1 = 0.0987	2.73
313.15 K, Frequency=0.0075 MHz, x1 = 0.1449	3.13
313.15 K, Frequency=0.0075 MHz, x1 = 0.1859	3.37
313.15 K, Frequency=0.0075 MHz, x1 = 0.2493	3.36
313.15 K, Frequency=0.0075 MHz, x1 = 0.3029	3.321
313.15 K, Frequency=0.0075 MHz, x1 = 0.3845	3.16
313.15 K, Frequency=0.0075 MHz, x1 = 0.4985	2.88
313.15 K, Frequency=0.0075 MHz, x1 = 0.6954	2.43
313.15 K, Frequency=0.0075 MHz, x1 = 0.9013	2.09
313.15 K, Frequency=0.0075 MHz, x1 = 1	2
313.15 K, Frequency=0.008 MHz, x1 = 0.0463	1.79
313.15 K, Frequency=0.008 MHz, x1 = 0.0987	2.73
313.15 K, Frequency=0.008 MHz, x1 = 0.1449	3.13
313.15 K, Frequency=0.008 MHz, x1 = 0.1859	3.37
313.15 K, Frequency=0.008 MHz, x1 = 0.2493	3.36
313.15 K, Frequency=0.008 MHz, x1 = 0.3029	3.321
313.15 K, Frequency=0.008 MHz, x1 = 0.3845	3.16
313.15 K, Frequency=0.008 MHz, x1 = 0.4985	2.88
313.15 K, Frequency=0.008 MHz, x1 = 0.6954	2.43
313.15 K, Frequency=0.008 MHz, x1 = 0.9013	2.09
313.15 K, Frequency=0.008 MHz, x1 = 1	2
313.15 K, Frequency=0.00857143 MHz, x1 = 0.0463	1.79
313.15 K, Frequency=0.00857143 MHz, x1 = 0.0987	2.73
313.15 K, Frequency=0.00857143 MHz, x1 = 0.1449	3.13
313.15 K, Frequency=0.00857143 MHz, x1 = 0.1859	3.37
313.15 K, Frequency=0.00857143 MHz, x1 = 0.2493	3.36
313.15 K, Frequency=0.00857143 MHz, x1 = 0.3029	3.321
313.15 K, Frequency=0.00857143 MHz, x1 = 0.3845	3.16
313.15 K, Frequency=0.00857143 MHz, x1 = 0.4985	2.88
313.15 K, Frequency=0.00857143 MHz, x1 = 0.6954	2.43
313.15 K, Frequency=0.00857143 MHz, x1 = 0.9013	2.09
313.15 K, Frequency=0.00857143 MHz, x1 = 1	2
313.15 K, Frequency=0.00892857 MHz, x1 = 0.0463	1.79
313.15 K, Frequency=0.00892857 MHz, x1 = 0.0987	2.73
313.15 K, Frequency=0.00892857 MHz, x1 = 0.1449	3.13
313.15 K, Frequency=0.00892857 MHz, x1 = 0.1859	3.37
313.15 K, Frequency=0.00892857 MHz, x1 = 0.2493	3.36
313.15 K, Frequency=0.00892857 MHz, x1 = 0.3029	3.321
313.15 K, Frequency=0.00892857 MHz, x1 = 0.3845	3.16
313.15 K, Frequency=0.00892857 MHz, x1 = 0.4985	2.88
313.15 K, Frequency=0.00892857 MHz, x1 = 0.6954	2.43
313.15 K, Frequency=0.00892857 MHz, x1 = 0.9013	2.09
313.15 K, Frequency=0.00892857 MHz, x1 = 1	2
313.15 K, Frequency=0.00961538 MHz, x1 = 0.0463	1.79
313.15 K, Frequency=0.00961538 MHz, x1 = 0.0987	2.73
313.15 K, Frequency=0.00961538 MHz, x1 = 0.1449	3.13
313.15 K, Frequency=0.00961538 MHz, x1 = 0.1859	3.37
313.15 K, Frequency=0.00961538 MHz, x1 = 0.2493	3.36
313.15 K, Frequency=0.00961538 MHz, x1 = 0.3029	3.322
313.15 K, Frequency=0.00961538 MHz, x1 = 0.3845	3.16
313.15 K, Frequency=0.00961538 MHz, x1 = 0.4985	2.88
313.15 K, Frequency=0.00961538 MHz, x1 = 0.6954	2.43
313.15 K, Frequency=0.00961538 MHz, x1 = 0.9013	2.09
313.15 K, Frequency=0.00961538 MHz, x1 = 1	2
313.15 K, Frequency=0.01 MHz, x1 = 0.0463	1.79
313.15 K, Frequency=0.01 MHz, x1 = 0.0987	2.73
313.15 K, Frequency=0.01 MHz, x1 = 0.1449	3.13
313.15 K, Frequency=0.01 MHz, x1 = 0.1859	3.37
313.15 K, Frequency=0.01 MHz, x1 = 0.2493	3.36
313.15 K, Frequency=0.01 MHz, x1 = 0.3029	3.322
313.15 K, Frequency=0.01 MHz, x1 = 0.3845	3.16
313.15 K, Frequency=0.01 MHz, x1 = 0.4985	2.88
313.15 K, Frequency=0.01 MHz, x1 = 0.6954	2.43
313.15 K, Frequency=0.01 MHz, x1 = 0.9013	2.09
313.15 K, Frequency=0.01 MHz, x1 = 1	2
323.15 K, Frequency=0.0005 MHz, x1 = 0.0463	1.99
323.15 K, Frequency=0.0005 MHz, x1 = 0.0987	3.06
323.15 K, Frequency=0.0005 MHz, x1 = 0.1449	3.56
323.15 K, Frequency=0.0005 MHz, x1 = 0.1859	3.816
323.15 K, Frequency=0.0005 MHz, x1 = 0.2493	3.88
323.15 K, Frequency=0.0005 MHz, x1 = 0.3029	3.85
323.15 K, Frequency=0.0005 MHz, x1 = 0.3845	3.726
323.15 K, Frequency=0.0005 MHz, x1 = 0.4985	3.45
323.15 K, Frequency=0.0005 MHz, x1 = 0.6954	2.99
323.15 K, Frequency=0.0005 MHz, x1 = 0.9013	2.622
323.15 K, Frequency=0.0005 MHz, x1 = 1	2.525
323.15 K, Frequency=0.001 MHz, x1 = 0.0463	2

Details	electrical conductivity, 323.15 K [S/m]	mass density, 313.15 K [kg/m3]	viscosity, 323.15 K [mPa·s]
x1 = 0.0463	2.01	–	–
x1 = 0.0987	3.08	1090.51	1.87
x1 = 0.1449	3.57	–	–
x1 = 0.1859	3.85	1075.67	2.58
x1 = 0.2493	3.89	–	–
x1 = 0.3029	3.88	1059.04	3.77
x1 = 0.3845	3.74	–	–
x1 = 0.4985	3.46	1037.83	6.36
x1 = 0.6954	2.99	1022.16	9.69
x1 = 0.9013	2.633	1009.87	13.92
x1 = 1	2.529	1005.06	16.15

Source: the NIST ThermoML archive (doi:10.1016/j.jct.2015.08.014)
